Results from patent publication US20060183714A1, “3-Alpha-glycosyl alpha, alpha-trehalose compound, process for producing the same, and use” (priority 2003, published 2006).

Tests used:
[1] = reducibility of the saccharide product; assay type: physicochemical; conditions: product as obtained
[2] = aminocarbonyl (Maillard) reaction of the saccharide product; assay type: physicochemical; conditions: product as obtained

Compound	reducibility [1]	aminocarbonyl reaction [2]
OC[C@H]1O[C@H](OC[C@H]2O[C@H](O[C@@H]3[C@@H](O)[C@@H](O[C@H]4O[C@H](CO)[C@@H](O)[C@H](O)[C@H]4O)O[C@H](CO)[C@H]3O)[C@H](O)[C@@H](O)[C@@H]2O)[C@H](O)[C@@H](O)[C@@H]1O [Example 3, 3-α-isomaltosyl α,α-trehalose]	substantially no reducibility	hardly causes amino carbonyl reaction
OC[C@H]1O[C@H](O[C@H]2O[C@H](CO)[C@@H](O)[C@H](O[C@H]3O[C@H](CO)[C@@H](O)[C@H](O)[C@H]3O)[C@H]2O)[C@H](O)[C@@H](O)[C@@H]1O [Example 5, 3-α-glucosyl α,α-trehalose]	substantially no reducibility	hardly causes aminocarbonyl reaction
